Molecules are shown by their SMILES.

The record followed here is patent US20080009479A1, “Tetrahydrobenzazepines as Histamine H3 Receptor Ligands” (GLAXO GROUP LIMITED, priority 2004, published 2008).

The target of experiment [1] is T1, human histamine H3 receptor (Homo sapiens, UniProt Q9Y5N1).
T1 construct: expressed in transfected cells; host or cells: CHO K1 cells carrying the pSwitch regulatory plasmid, transfected with pGeneH3 and induced with mifepristone; clone 3H3; membranes prepared from these cells
Kind of experiment: Histamine H3 functional antagonist assay (method B). The experiment is classed as biochemical. As to conditions: [35S]GTPγS LeadSeeker SPA, CHO membranes, histamine at EC80, 384 well; read-out: antagonism pKb, histamine H3 functional antagonist assay (method B) (converted). The text has this:
(§1) A membrane preparation containing histamine H3 receptors may be prepared in accordance with the following procedures:
DNA encoding the human histamine H3 gene (Huvar, A. et al. (1999) Mol. Pharmacol. 55(6), 1101-1107) was cloned into a holding vector, pCDNA3.1 TOPO (InVitrogen) and its cDNA was isolated from this vector by restriction digestion of plasmid DNA with the enzymes BamH1 and Not-1 and ligated into the inducible expression vector pGene (InVitrogen) digested with the same enzymes. The GeneSwitch™ system (a system where in transgene expression is switched off in the absence of an inducer and switched on in the presence of an inducer) was performed as described in U.S. Pat. Nos. 5,364,791; 5,874,534; and 5,935,934. Ligated DNA was transformed into competent DH5α E. coli host bacterial cells and plated onto Luria Broth (LB) agar containing Zeocin™ (an antibiotic which allows the selection of cells expressing the sh ble gene which is present on pGene and pSwitch) at 50 μg ml^−1. Colonies containing the re-ligated plasmid were identified by restriction analysis. DNA for transfection into mammalian cells was prepared from 250 ml cultures of the host bacterium containing the pGeneH3 plasmid and isolated using a DNA preparation kit (Qiagen Midi-Prep) as per manufacturers guidelines (Qiagen). […]
(§2) 10-14 days post selection 10 nM Mifepristone (InVitrogen), was added to the culture medium to induce the expression of the receptor. […] Receptor bound antibody was detected by incubation of the cells for 60 minutes on ice with a goat anti rabbit antibody, conjugated with Alexa 488 fluorescence marker (Molecular Probes). Following two further washes with Sorting Medium, cells were filtered through a 50 μm Filcon™ (BD Biosciences) and then analysed on a FACS Vantage SE Flow Cytometer fitted with an Automatic Cell Deposition Unit. […]

In experiment [2] the target is T1, human histamine H3 receptor. In words: Histamine H3 functional antagonist assay (method C). The class given is biochemical. As to conditions: [35S]GTPγS LeadSeeker SPA, CHO membranes, histamine at EC80, 384 well, compound in DMSO; read-out: antagonism pKb, histamine H3 functional antagonist assay (method C) (converted).
Source text: as §1
(§3) DNA encoding the human histamine H3 gene (Huvar, A. et al. (1999) Mol. Pharmacol. 55(6), 1101-1107) was cloned into a holding vector, pCDNA3.1 TOPO (InVitrogen) and its cDNA was isolated from this vector by restriction digestion of plasmid DNA with the enzymes BamH1 and Not-1 and ligated into the inducible expression vector pGene (InVitrogen) digested with the same enzymes. The GeneSwitch™ system (a system where in transgene expression is switched off in the absence of an inducer and switched on in the presence of an inducer) was performed as described in U.S. Pat. Nos. 5,364,791; 5,874,534; and 5,935,934. […]
as §2

The target is the same in experiment [3]. In words: Histamine H3 functional antagonist assay (method A). The following applies: [35S]GTPγS SPA, CHO membranes, histamine 0.3 μM, 96 well. The experiment is classed as biochemical.
Source text: as §1, §3, §2

The target of experiment [4] is T2, human H1 receptor (Homo sapiens, UniProt P35367).
T2 construct: expressed in transfected cells; host or cells: Chinese hamster ovary cells stably expressing the human H1 receptor
Kind of experiment: Histamine H1 functional antagonist assay (method A). The experiment is classed as cell-based. The following applies: FLIPR, FLUO4AM, suppression of histamine induced increase in fluorescence; read-out: antagonism pKb, histamine H1 functional antagonist assay (method A) (converted). The method, then: A histamine H1 cell line may be generated in accordance with the following procedure:
The human H1 receptor was cloned using known procedures described in the literature [Biochem. Biophys. Res. Commun. 1994, 201(2), 894]. Chinese hamster ovary cells stably expressing the human H1 receptor were generated according to known procedures described in the literature [Br. J. Pharmacol. 1996, 117(6), 1071].
(IV) Histamine H1 Functional Antagonist Assay (Method A)
The compound is assayed in a black walled clear bottom 384-well plate with cells seeded at 10000 cells/well. Tyrodes buffer is used throughout (NaCl 145 mM, KCl 2.5 mM, HEPES 10 mM, glucose 10 mM, MgCl2 1.2 mM, CaCl2 1.5 mM, probenecid 2.5 mM, pH adjusted to 7.40 with NaOH 1.0 M). Each well is treated with 10 μl of a solution of FLUO4AM (10 μM in Tyrodes buffer at pH 7.40) and plates are then incubated for 60 minutes at 37° C. Wells are then washed with Tyrodes buffer using a EMBLA cell washer system, leaving 40 μl buffer in each well, and then treated with 10 μl of test compound in Tyrodes buffer. […]
Functional antagonism is indicated by a suppression of histamine induced increase in fluorescence, as measured by the FLIPR system (Molecular Devices). By means of concentration effect curves, functional potencies are determined using standard pharmacological mathematical analysis.

T1 sequence (Q9Y5N1 whole entry): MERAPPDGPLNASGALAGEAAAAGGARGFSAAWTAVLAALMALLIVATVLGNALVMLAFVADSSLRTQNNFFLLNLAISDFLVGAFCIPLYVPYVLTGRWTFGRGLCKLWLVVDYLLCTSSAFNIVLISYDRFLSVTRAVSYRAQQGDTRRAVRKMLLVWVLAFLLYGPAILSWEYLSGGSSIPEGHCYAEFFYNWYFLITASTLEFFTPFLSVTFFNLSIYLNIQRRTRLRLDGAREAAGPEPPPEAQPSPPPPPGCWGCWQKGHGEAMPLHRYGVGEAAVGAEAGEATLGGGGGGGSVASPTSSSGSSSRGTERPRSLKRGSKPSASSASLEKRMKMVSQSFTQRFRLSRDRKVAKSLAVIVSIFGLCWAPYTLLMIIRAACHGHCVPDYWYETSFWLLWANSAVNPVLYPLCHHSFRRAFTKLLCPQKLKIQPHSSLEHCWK
T2 sequence (P35367 whole entry): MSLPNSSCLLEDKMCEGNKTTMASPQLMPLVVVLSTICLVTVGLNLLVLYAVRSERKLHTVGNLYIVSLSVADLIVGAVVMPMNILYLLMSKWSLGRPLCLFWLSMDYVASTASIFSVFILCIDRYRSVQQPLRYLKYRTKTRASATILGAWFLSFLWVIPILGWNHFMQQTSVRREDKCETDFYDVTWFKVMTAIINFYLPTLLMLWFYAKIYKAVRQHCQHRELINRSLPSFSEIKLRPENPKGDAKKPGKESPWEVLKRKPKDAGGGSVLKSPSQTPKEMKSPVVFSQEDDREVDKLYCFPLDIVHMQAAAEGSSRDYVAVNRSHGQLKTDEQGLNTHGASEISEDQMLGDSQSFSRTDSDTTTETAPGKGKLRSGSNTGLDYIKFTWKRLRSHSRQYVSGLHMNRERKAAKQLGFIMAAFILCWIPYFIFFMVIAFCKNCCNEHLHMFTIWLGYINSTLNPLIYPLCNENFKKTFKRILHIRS

As for `O=C1CCCN1c1cnc(Oc2ccc3c(c2)CCN(CC2CC2)CC3)cn1` [Example E1, 1-(5-{[3-(Cyclopropylmethyl)-2,3,4,5-tetrahydro-1H-3-benzazepin-7-yl]oxy}-2-pyrazinyl)-2-pyrrolidinone], the Kb in experiment [1] and in experiment [2] was < 1 nM in each case.

With `O=C1CCCN1c1ccc(Oc2ccc3c(c2)CCN(CC2CC2)CC3)nc1` [Example E13, 1-(6-{[3-(Cyclopropylmethyl)-2,3,4,5-tetrahydro-1H-3-benzazepin-7-yl]oxy}-3-pyridinyl)-2-pyrrolidinone], the Kb in experiment [1] is < 1 nM.

With `CCN1CCc2ccc(Oc3ccc(N4CCCC4=O)cn3)cc2CC1` [Example E14, 1-{6-[(3-Ethyl-2,3,4,5-tetrahydro-1H-3-benzazepin-7-yl)oxy]-3-pyridinyl}-2-pyrrolidinone], the Kb in experiment [1] was < 1 nM.

Consider `CCC(C)N1CCc2ccc(Oc3ccc(N4CCCC4=O)cn3)cc2CC1` (centres unmarked) [Example E15, 1-(6-{[3-(1-Methylpropyl)-2,3,4,5-tetrahydro-1H-3-benzazepin-7-yl]oxy}-3-pyridinyl)-2-pyrrolidinone], for which the Kb in experiment [2] was < 1 nM.

For the molecule `c1ccc(COc2ccc3c(c2)CCN(CC2CC2)CC3)cc1` [Example E19, 3-(Cyclopropylmethyl)-7-[(phenylmethyl)oxy]-2,3,4,5-tetrahydro-1H-3-benzazepine], the Kb was < 10 nM in experiment [3] (antagonism pKb, histamine H3 functional antagonist assay (method A)) and > 316 nM in experiment [4].

With `c1cc2c(cc1OCCCC1CCCCC1)CCN(CC1CC1)CC2` [Example E20, 7-[(3-Cyclohexylpropyl)oxy]-3-(cyclopropylmethyl)-2,3,4,5-tetrahydro-1H-3-benzazepine], the Kb in experiment [3] (read-out: antagonism pKb, histamine H3 functional antagonist assay (method A) (converted)) was < 100 nM.
